Where two headings read alike, the source gives them in different places.
Tests used:
Format in all cases: physicochemical
[1] = Thermal stability by TGA (thermal gravimetric analysis) and DSC
Experimental: Thermal initiated carbonyl extrusion can be depicted by both TGA (thermal gravimetric analysis) and DSC (differential scanning calorimetry) studies. […] The decarbonylation appears at 150° C. to yield pentacene, which decomposes at about 360° C. as measured by 5% weight loss. During the extrusion, Compound (3) loses about 9% weight corresponding to the weight ratio of CO in the molecule. The pentacene thus produced is stable up to temperatures of about 350° C. Above about 350° C., Compound (3) starts to experience thermal decomposition.
General: ^1H^13C NMR spectra were obtained on a Bruker AMX-400 spectrometer. Infrared spectra were recorded on a Perkin-Elmer 682 infrared spectrophotometer. Ultraviolet-visible absorption Spectra were recorded on a HP 8453 spectrophotometer. Differential scanning calorimetry was done on a Perkin-Elmer model DSC7 instrument. Thermal gravimetric analysis was performed by a Perkin-Elmer TGA7 analyzer.

[2] = Solubility in organic solvents
Experimental: Compound (3) is quite soluble in dichloromethane benzene, toluene, acetone, and tetrahydrofuran (all in the range of ˜2.0 mM i.e. about 0.7 mg/mL solvent) but is not soluble in methanol, ethanol, or acetonitrile. Compound (3) can be applied to a surface of an article by spin coating, spray coating, screen printing or ink-jet printing to form a film. The film can be dried in any of the conventional ways including air drying or with mild heating, i.e. below about 120° C. Subsequent to drying, a chemical reaction is initiated preferably by the application of heat resulting, inter alia, in the driving off of volatile components including CO.

[3] = Stability at ambient conditions

Structure (SMILES) | decomposition temperature ([1]; TGA, as measured by 5% weight loss) | temperature up to which stable ([1]; TGA, pentacene produced from the precursor) | solubility ([2]; in methanol, ethanol or acetonitrile) | solubility ([2]; organic solvent or mixture, in dichloromethane, benzene, toluene, acetone and tetrahydrofuran (all in this range), read-out: solubility) | solubility ([2]; organic solvent or mixture, in dichloromethane, benzene, toluene, acetone and tetrahydrofuran, per mL solvent, read-out: solubility) | temperature above which thermal decomposition starts ([1]; TGA) | fragmentation (decarbonylation) temperature ([1]; TGA/DSC, 10° C./min heating rate, CO extrusion to yield pentacene) | weight loss during CO extrusion ([1]; TGA, corresponds to weight ratio of CO in the molecule) | stability [3]
c1ccc2cc3cc4cc5ccccc5cc4cc3cc2c1 [pentacene] | about 360 °C | about 350 °C | – | – | – | – | – | – | –
O=C1C2c3cc4ccccc4cc3C1c1cc3ccccc3cc12 [Compound (3), 6,13-dihydro-6,13-methanopentacene-15-one] | – | – | not soluble | ~2000 µM | ~700 µg/mL | Above 350 °C | 150 °C | about 9% | stable

From US7572939B2, “Type of soluble pentacene precursor” (Academia Sinica, priority 2006, dated 2009)
